Source: patent US6872725B2, “Solid-state forms of N-(2-hydroxyacetyl)-5-(4-piperidyl)-4-(4-pyrimidinyl)-3-(4-chlorophenyl) pyrazole” (Pharmacia Corporation, priority 2001, dated 2005)

What was measured:
[1] = physical stability of solid-state forms at ambient temperatures; format: physicochemical; conditions: compared with the other solid-state forms of Compound 1
Source text: In one embodiment, the invention comprises the Form I polymorph of Compound 1. […] Similarly, selection of a solid-state form of Compound 1 that is physically stable over a wide range of storage conditions (especially considering the different possible storage conditions that can occur during the lifetime of a Compound 1 product) can help avoid polymorphic or other degradative changes in the Compound 1 that can lead to product loss or deterioration of product efficacy.

[2] = slurry conversion of dihydrate crystals to Form I polymorph in tetrahydrofuran/water; format: physicochemical; conditions: 80:20 tetrahydrofuran/water mixture (volume basis), 25° C.
Procedure: The dihydrate crystalline form of Compound 1 also can be prepared, for example, by slurry conversion of the Form II polymorph in a tetrahydrofuran/water mixture. A sufficient amount of the Form II polymorph is added to an 80:20 tetrahydrofuran/water mixture (volume basis) to form a saturated solution at 25° C. The solution then spontaneously desaturates by precipitating dihydrate crystals. Once precipitated, the dihydrate crystals eventually convert to the more thermodynamically stable Form I polymorph.

time before conversion to the more thermodynamically stable Form I polymorph [2] | Compound | physical stability at ambient temperatures [1]
– | O=C(CO)N1CCC(c2[nH]nc(-c3ccc(Cl)cc3)c2-c2ccncn2)CC1 [Form I polymorph, N-(2-hydroxyacetyl)-5-(4-piperidyl)-4-(4-pyrimidinyl)-3-(4-chlorophenyl)pyrazole] | greater physical stability at ambient temperatures than the other solid-state forms of Compound 1
does not take place for about four days | O=C(CO)n1nc(-c2ccc(Cl)cc2)c(-c2ccncn2)c1C1CCNCC1 [dihydrate crystalline form, N-(2-hydroxyacetyl)-5-(4-piperidyl)-4-(4-pyrimidinyl)-3-(4-chlorophenyl)pyrazole] | –
